Test results: the NIST ThermoML archive (doi:10.1021/je800579j)
± gives the expanded uncertainty stated by the source.

Experiment: xn = mol fraction of the nth substance listed
Conditions: Liquid, Pycnometric method

**Q.** Which mass density (288.15 K, x2 = 0) does the source give for Cc1cc(C)cc(C)c1 [1,3,5-trimethylbenzene] + C1COCCO1 here?
**A.** 869.28 ± 0.63 kg/m3

**Q.** And the mass density (288.15 K, x2 = 0.0696)?
**A.** 876.28 ± 0.67 kg/m3

**Q.** What about the mass density (288.15 K, x2 = 0.1408) of the same compound?
**A.** 883.83 ± 0.69 kg/m3

**Q.** And the mass density (288.15 K, x2 = 0.2098)?
**A.** 891.62 ± 0.7 kg/m3

**Q.** And the mass density (288.15 K, x2 = 0.28)?
**A.** 900.04 ± 0.72 kg/m3

**Q.** And the mass density (288.15 K, x2 = 0.3558)?
**A.** 909.87 ± 0.74 kg/m3

**Q.** And the mass density (288.15 K, x2 = 0.4276)?
**A.** 919.97 ± 0.76 kg/m3

**Q.** And the mass density (288.15 K, x2 = 0.5066)?
**A.** 932.03 ± 0.79 kg/m3

**Q.** And the mass density (288.15 K, x2 = 0.5801)?
**A.** 944.34 ± 0.8 kg/m3

**Q.** What about the mass density (288.15 K, x2 = 0.6548) of the same compound?
**A.** 957.96 ± 0.83 kg/m3

**Q.** And the mass density (288.15 K, x2 = 0.7227)?
**A.** 971.44 ± 0.85 kg/m3

**Q.** What about the mass density (288.15 K, x2 = 0.7936) of the same compound?
**A.** 986.75 ± 0.87 kg/m3

**Q.** And the mass density (288.15 K, x2 = 0.8663)?
**A.** 1003.78 ± 0.9 kg/m3

**Q.** What about the mass density (288.15 K, x2 = 0.9319) of the same compound?
**A.** 1020.49 ± 0.92 kg/m3

**Q.** What about the mass density (293.15 K, x2 = 0) of the same compound?
**A.** 865.37 ± 0.63 kg/m3

**Q.** What about the mass density (293.15 K, x2 = 0.0696) of the same compound?
**A.** 872.24 ± 0.64 kg/m3

**Q.** What about the mass density (293.15 K, x2 = 0.1408) of the same compound?
**A.** 879.67 ± 0.66 kg/m3

**Q.** And the mass density (293.15 K, x2 = 0.2098)?
**A.** 887.36 ± 0.67 kg/m3

**Q.** What about the mass density (293.15 K, x2 = 0.28) of the same compound?
**A.** 895.68 ± 0.69 kg/m3

**Q.** What about the mass density (293.15 K, x2 = 0.3558) of the same compound?
**A.** 905.4 ± 0.7 kg/m3

**Q.** And the mass density (293.15 K, x2 = 0.4276)?
**A.** 915.4 ± 0.72 kg/m3

**Q.** And the mass density (293.15 K, x2 = 0.5066)?
**A.** 927.35 ± 0.73 kg/m3

**Q.** And the mass density (293.15 K, x2 = 0.5801)?
**A.** 939.54 ± 0.75 kg/m3

**Q.** What about the mass density (293.15 K, x2 = 0.6548) of the same compound?
**A.** 953.01 ± 0.77 kg/m3

**Q.** What about the mass density (293.15 K, x2 = 0.7227) of the same compound?
**A.** 966.36 ± 0.79 kg/m3

**Q.** And the mass density (293.15 K, x2 = 0.7936)?
**A.** 981.51 ± 0.81 kg/m3

**Q.** What about the mass density (293.15 K, x2 = 0.8663) of the same compound?
**A.** 998.39 ± 0.83 kg/m3

**Q.** And the mass density (293.15 K, x2 = 0.9319)?
**A.** 1014.96 ± 0.85 kg/m3

**Q.** What about the mass density (298.15 K, x2 = 0) of the same compound?
**A.** 861.45 ± 0.63 kg/m3

**Q.** And the mass density (298.15 K, x2 = 0.0696)?
**A.** 868.2 ± 0.65 kg/m3

**Q.** What about the mass density (298.15 K, x2 = 0.1408) of the same compound?
**A.** 875.52 ± 0.66 kg/m3

**Q.** And the mass density (298.15 K, x2 = 0.2098)?
**A.** 883.1 ± 0.68 kg/m3

**Q.** What about the mass density (298.15 K, x2 = 0.28) of the same compound?
**A.** 891.32 ± 0.69 kg/m3

**Q.** What about the mass density (298.15 K, x2 = 0.3558) of the same compound?
**A.** 900.93 ± 0.71 kg/m3

**Q.** What about the mass density (298.15 K, x2 = 0.4276) of the same compound?
**A.** 910.83 ± 0.72 kg/m3

**Q.** What about the mass density (298.15 K, x2 = 0.5066) of the same compound?
**A.** 922.67 ± 0.74 kg/m3

**Q.** And the mass density (298.15 K, x2 = 0.5801)?
**A.** 934.74 ± 0.75 kg/m3

**Q.** What about the mass density (298.15 K, x2 = 0.6548) of the same compound?
**A.** 948.06 ± 0.77 kg/m3

**Q.** What about the mass density (298.15 K, x2 = 0.7227) of the same compound?
**A.** 961.28 ± 0.79 kg/m3

**Q.** What about the mass density (298.15 K, x2 = 0.7936) of the same compound?
**A.** 976.27 ± 0.81 kg/m3

**Q.** And the mass density (298.15 K, x2 = 0.8663)?
**A.** 993 ± 0.83 kg/m3

**Q.** And the mass density (298.15 K, x2 = 0.9319)?
**A.** 1009.43 ± 0.85 kg/m3

**Q.** What about the mass density (303.15 K, x2 = 0) of the same compound?
**A.** 857.54 ± 0.64 kg/m3

**Q.** What about the mass density (303.15 K, x2 = 0.0696) of the same compound?
**A.** 864.16 ± 0.65 kg/m3

**Q.** And the mass density (303.15 K, x2 = 0.1408)?
**A.** 871.37 ± 0.67 kg/m3

**Q.** And the mass density (303.15 K, x2 = 0.2098)?
**A.** 878.84 ± 0.68 kg/m3

**Q.** What about the mass density (303.15 K, x2 = 0.28) of the same compound?
**A.** 886.96 ± 0.7 kg/m3

**Q.** What about the mass density (303.15 K, x2 = 0.3558) of the same compound?
**A.** 896.46 ± 0.71 kg/m3

**Q.** And the mass density (303.15 K, x2 = 0.4276)?
**A.** 906.26 ± 0.73 kg/m3

**Q.** And the mass density (303.15 K, x2 = 0.5066)?
**A.** 917.99 ± 0.74 kg/m3

**Q.** And the mass density (303.15 K, x2 = 0.5801)?
**A.** 929.94 ± 0.76 kg/m3

**Q.** What about the mass density (303.15 K, x2 = 0.6548) of the same compound?
**A.** 943.12 ± 0.78 kg/m3

**Q.** What about the mass density (303.15 K, x2 = 0.7227) of the same compound?
**A.** 956.21 ± 0.8 kg/m3

**Q.** What about the mass density (303.15 K, x2 = 0.7936) of the same compound?
**A.** 971.04 ± 0.82 kg/m3

**Q.** And the mass density (303.15 K, x2 = 0.8663)?
**A.** 987.61 ± 0.84 kg/m3

**Q.** What about the mass density (303.15 K, x2 = 0.9319) of the same compound?
**A.** 1003.91 ± 0.86 kg/m3

**Q.** And the mass density (308.15 K, x2 = 0)?
**A.** 853.63 ± 0.65 kg/m3

**Q.** What about the mass density (308.15 K, x2 = 0.0696) of the same compound?
**A.** 860.13 ± 0.66 kg/m3

**Q.** And the mass density (308.15 K, x2 = 0.1408)?
**A.** 867.22 ± 0.68 kg/m3

**Q.** What about the mass density (308.15 K, x2 = 0.2098) of the same compound?
**A.** 874.59 ± 0.69 kg/m3

**Q.** What about the mass density (308.15 K, x2 = 0.28) of the same compound?
**A.** 882.6 ± 0.7 kg/m3

**Q.** And the mass density (308.15 K, x2 = 0.3558)?
**A.** 892 ± 0.72 kg/m3

**Q.** What about the mass density (308.15 K, x2 = 0.4276) of the same compound?
**A.** 901.7 ± 0.73 kg/m3

**Q.** What about the mass density (308.15 K, x2 = 0.5066) of the same compound?
**A.** 913.32 ± 0.75 kg/m3

**Q.** And the mass density (308.15 K, x2 = 0.5801)?
**A.** 925.14 ± 0.77 kg/m3

**Q.** And the mass density (308.15 K, x2 = 0.6548)?
**A.** 938.18 ± 0.78 kg/m3

**Q.** And the mass density (308.15 K, x2 = 0.7227)?
**A.** 951.14 ± 0.8 kg/m3

**Q.** What about the mass density (308.15 K, x2 = 0.7936) of the same compound?
**A.** 965.81 ± 0.82 kg/m3

**Q.** What about the mass density (308.15 K, x2 = 0.8663) of the same compound?
**A.** 982.23 ± 0.84 kg/m3

**Q.** And the mass density (308.15 K, x2 = 0.9319)?
**A.** 998.39 ± 0.86 kg/m3

**Q.** What about the mass density (313.15 K, x2 = 0) of the same compound?
**A.** 849.71 ± 0.65 kg/m3

**Q.** What about the mass density (313.15 K, x2 = 0.0696) of the same compound?
**A.** 856.1 ± 0.67 kg/m3

**Q.** And the mass density (313.15 K, x2 = 0.1408)?
**A.** 863.07 ± 0.68 kg/m3

**Q.** And the mass density (313.15 K, x2 = 0.2098)?
**A.** 870.34 ± 0.7 kg/m3

**Q.** And the mass density (313.15 K, x2 = 0.28)?
**A.** 878.25 ± 0.71 kg/m3

**Q.** And the mass density (313.15 K, x2 = 0.3558)?
**A.** 887.54 ± 0.72 kg/m3

**Q.** What about the mass density (313.15 K, x2 = 0.4276) of the same compound?
**A.** 897.14 ± 0.74 kg/m3

**Q.** What about the mass density (313.15 K, x2 = 0.5066) of the same compound?
**A.** 908.65 ± 0.75 kg/m3

**Q.** What about the mass density (313.15 K, x2 = 0.5801) of the same compound?
**A.** 920.34 ± 0.77 kg/m3

**Q.** And the mass density (313.15 K, x2 = 0.6548)?
**A.** 933.25 ± 0.79 kg/m3

**Q.** And the mass density (313.15 K, x2 = 0.7227)?
**A.** 946.07 ± 0.81 kg/m3

**Q.** What about the mass density (313.15 K, x2 = 0.7936) of the same compound?
**A.** 960.58 ± 0.83 kg/m3

**Q.** What about the mass density (313.15 K, x2 = 0.8663) of the same compound?
**A.** 976.85 ± 0.85 kg/m3

**Q.** And the mass density (313.15 K, x2 = 0.9319)?
**A.** 992.87 ± 0.87 kg/m3

**Q.** And the mass density (318.15 K, x2 = 0)?
**A.** 845.8 ± 0.66 kg/m3

**Q.** And the mass density (318.15 K, x2 = 0.0696)?
**A.** 852.07 ± 0.66 kg/m3

**Q.** And the mass density (318.15 K, x2 = 0.1408)?
**A.** 858.92 ± 0.67 kg/m3

**Q.** What about the mass density (318.15 K, x2 = 0.2098) of the same compound?
**A.** 866.09 ± 0.68 kg/m3

**Q.** What about the mass density (318.15 K, x2 = 0.28) of the same compound?
**A.** 873.9 ± 0.69 kg/m3

**Q.** What about the mass density (318.15 K, x2 = 0.3558) of the same compound?
**A.** 883.08 ± 0.7 kg/m3

**Q.** What about the mass density (318.15 K, x2 = 0.4276) of the same compound?
**A.** 892.58 ± 0.71 kg/m3

**Q.** What about the mass density (318.15 K, x2 = 0.5066) of the same compound?
**A.** 903.98 ± 0.72 kg/m3

**Q.** What about the mass density (318.15 K, x2 = 0.5801) of the same compound?
**A.** 915.54 ± 0.74 kg/m3

**Q.** And the mass density (318.15 K, x2 = 0.6548)?
**A.** 928.32 ± 0.75 kg/m3

**Q.** What about the mass density (318.15 K, x2 = 0.7227) of the same compound?
**A.** 941 ± 0.77 kg/m3

**Q.** What about the mass density (318.15 K, x2 = 0.7936) of the same compound?
**A.** 955.35 ± 0.78 kg/m3

**Q.** And the mass density (318.15 K, x2 = 0.8663)?
**A.** 971.47 ± 0.8 kg/m3

**Q.** What about the mass density (318.15 K, x2 = 0.9319) of the same compound?
**A.** 987.35 ± 0.81 kg/m3
